The source made the active and inactive calls.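 The calls were made as follows: active = compounds giving half or more protection of infected cells from virus-caused growth loss, again on retest; inactive = the rest.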

Among the data in PubChem BioAssay AID179 (DTP/NCI, 2004) are outcome, EC50 and IC50 values, retold here.

The test system of this assay is CEM cells HIV-1 protection, formazan growth assay. The experiment in a line: NCI AIDS Antiviral Assay. Particulars: for IC50: measured here: growth of uninfected CEM cells. In short, it runs like this: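 Human CEM cells, uninfected and HIV-1-infected, exposed to five drug concentrations; growth measured by soluble formazan assay and scored as percent protection from infection, with protecting compounds retested.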

On to `O=C1CNCCNCC(=O)Nc2ccccc2-c2ccccc2N1`, for which the outcome was inactive.

In the case of `Cn1ncc(NCCn2cnc3c2c(=O)n(C)c(=O)n3C)c(Cl)c1=O`, the EC50 (usually the midpoint of the concentration-response curve) was above 200 µM and the IC50 (usually the concentration needed to halve the response being measured) was above 200 µM.

For the compound `CCCC[C@H]1CCN2C[C@@H](O)[C@@H](O)[C@H]2[C@@H]1O`, the EC50 is above 200 µM and the IC50 was above 200 µM.

In the case of `COc1cc(/C=C2\C(=O)N(c3cccc(Cl)c3)C(c3ccccc3)S2(=O)=O)cc(OC)c1OC` (centres undefined), the EC50 is above 200 µM and the IC50 was determined as 112 µM.

For `C=CCN1/C(=C2\SC(=S)N(c3ccc(C)cc3)C2=O)Sc2c1nc[nH]c2=O`, the EC50 was above 2.51 µM and the IC50 was above 2.51 µM.

For `CC12CC3CC/C(=N\O)C(C1)C3(N1CCOCC1)C/C2=N/O` (centres undefined), the EC50 is above 200 µM and the IC50 is above 200 µM.

In the case of `Cc1ccc(N=Nc2c(N)nn3cc4c(nc23)-c2ccccc2CC4)cc1`, the EC50 was above 100 µM and the half-inhibitory concentration (IC50) was above 100 µM.

Turning to `CCOC(=O)C(CC[C@@H]1N[C@H](C(N)=O)Cc2c1[nH]c1ccccc21)C(=O)OCC`, the EC50 was above 89.1 µM and the 50% inhibitory concentration (IC50) was above 89.1 µM.

Turning to `c1cnc2c3cnc4sccc4c3nn2c1`, the EC50 is above 74.1 µM and the IC50 is above 74.1 µM.

Consider `C#CCn1c2c(c3ccccc3c1=O)C(=O)c1ccccc1-2`, for which the EC50 is above 63.1 µM and the IC50 was above 63.1 µM.

For the compound `Cc1c(N(C)C)ccc2c(=O)c3cccc(CC(=O)O)c3oc12`, the EC50 is above 741 µM and the IC50 turned out to be 282 µM.

Turning to `Cc1ccc(S(=O)(=O)NC(=O)NC2=NC(C)(C)N(c3ccc(Cl)c(Cl)c3)C(N)=N2)cc1`, the EC50 was above 200 µM and the half-inhibitory concentration (IC50) is 4.27 µM.

In turn, `O=C(O)c1ccccc1C1c2ccccc2Oc2ccccc21` yielded a concentration for a half-maximal effect (EC50) above 200 µM and a half-maximal inhibitory concentration (IC50) of 35.5 µM.

`S=C1N(c2ccc(Br)cc2)C2=Nc3ccccc3SC(=C2N=Nc2ccccc2)N1c1ccc(Cl)cc1`: the EC50 is above 37.2 µM and the IC50 was found to be 17 µM.

For the compound `COc1ccc(C(=O)c2ccc(OC)c(S(=O)(=O)OC)c2)cc1S(=O)(=O)OC`, the EC50 was above 43.7 µM and the IC50 was above 43.7 µM.

Regarding `O=S(=O)(N1CCCCN(S(=O)(=O)C(F)(F)F)CCCN(S(=O)(=O)C(F)(F)F)CCCN(S(=O)(=O)C(F)(F)F)CCCCN(S(=O)(=O)C(F)(F)F)CCCN(S(=O)(=O)C(F)(F)F)CCC1)C(F)(F)F`, the EC50 was above 200 µM and the half-maximal inhibitory concentration (IC50) is above 200 µM.

For the compound `COC(=O)C1=CC(=O)OC1(OO)c1ccccc1` (centres undefined), the EC50 is above 200 µM and the IC50 stood at 45.7 µM.

On to `O=[N+]([O-])c1ccc(/C=C/c2csnn2)cc1`, for which the EC50 is above 562 µM and the half-maximal inhibitory concentration (IC50) was 229 µM.

For `O=C1NC2OC(C(O)CO)C(O)C2O1` (centres undefined), the EC50 is above 200 µM and the 50% inhibitory concentration (IC50) is above 200 µM.

Regarding `OCCN=C1c2ccccc2C2C(c3ccccc31)C1c3ccccc3C(=NCCO)c3ccccc3C21` (centres undefined), the EC50 was above 200 µM and the IC50 worked out at 24 µM.

In the case of `CCOP(=O)(OCC)/C(C#N)=C/c1cccc(C#N)c1`, the EC50 is above 617 µM and the concentration for half-maximal inhibition (IC50) came to 102 µM.

Regarding `CCOC(=O)Cc1ccc2c(c1O)C(=O)c1c(ccc(CC(=O)OCC)c1O)C2=O`, the outcome was inactive.

Turning to `C=C(CC)C(=O)c1ccc(OCC(=O)O)c(Cl)c1Cl`, the EC50 was above 200 µM, the outcome was inactive and the concentration for half-maximal inhibition (IC50) was found to be 43.7 µM.

For `c1ccc(CNCCCCNCCCNCc2ccccc2)cc1`, the EC50 is above 200 µM and the half-maximal inhibitory concentration (IC50) amounted to 13.8 µM.

In the case of `C#CCCOC(=O)c1ccccc1OC(C)=O`, the EC50 is above 200 µM and the half-inhibitory concentration (IC50) is above 200 µM.

Take `CC(=O)OCC1Cn2c(c(-c3ccccc3)c(=O)[nH]c2=S)O1` (centres undefined): the EC50 was above 603 µM and the 50% inhibitory concentration (IC50) was above 603 µM.

For the compound `[N-]=[N+]=NC12CC3CC(CC(C3)C1)C2`, the EC50 was above 380 µM and the half-maximal inhibitory concentration (IC50) was above 380 µM.

Regarding `CCOC(=O)CCc1c(C)[nH]c2c(C)c3c([nH]c4ccc(Cl)cc43)c(C)c2c1=O`, the EC50 was above 200 µM and the 50% inhibitory concentration (IC50) was 11 µM.

Consider `N#C/C(=C\c1ccc(-c2ccccc2)cc1)c1ccccc1`, for which the EC50 was above 200 µM and the IC50 was 170 µM.

In the case of `Cc1cc(NS(=O)(=O)c2ccc(Nc3c4ccccc4nc4c(C(=O)Nc5ccc(S(N)(=O)=O)cc5)cccc34)cc2)no1`, the concentration for a half-maximal effect (EC50) is 25.1 µM and the IC50 amounted to 50.1 µM.

Turning to `O=C(O)c1cc2ccccc2oc1=O`, the EC50 is above 1320 µM and the half-maximal inhibitory concentration (IC50) is above 1320 µM.

Turning to `O=C1CCC(C(Sc2ccccc2)(Sc2ccccc2)Sc2ccccc2)C1` (centres undefined), the EC50 is above 200 µM and the IC50 is 38.9 µM.

Turning to `CCCCOC(=O)/C(CC(=O)C=C(C)C)=N\NS(=O)(=O)c1ccc(C)cc1`, the EC50 was above 174 µM and the concentration for half-maximal inhibition (IC50) was above 174 µM.

For `CC(C)C1=CC2=CCC3C(C)(CN)CCCC3(C)C2CC1CCN` (centres undefined), the EC50 was above 100 µM and the concentration for half-maximal inhibition (IC50) was 1.48 µM.

As to `N#Cc1cc2cc3c4c(c2oc1=O)CCCN4CCC3`, the EC50 is above 1.95 µM and the IC50 was above 1.95 µM.

`CCc1cccc(C)c1N1C(=O)C(=O)C(c2nc3ccccc3o2)/C(=N/NC(=S)NN)C1=O` (centres undefined): the outcome was inactive.

For `Cc1nc2c3c(ccc2[nH]c1=O)C(=O)c1ccccc1C3=O`, the result was inactive.

`CO/C(N)=C(\C#N)N=Cc1ccco1`: the EC50 is above 200 µM and the IC50 was determined as 191 µM.

In the case of `O=S1(=O)CS(=O)(=O)OCCCCCO1`, the EC50 is above 537 µM and the concentration for half-maximal inhibition (IC50) was above 537 µM.

For the compound `O=C(N=Nc1cccc(Cl)c1)NNc1cccc(Cl)c1`, the EC50 was above 200 µM and the IC50 amounted to 15.5 µM.

For the compound `COc1ccc2c(c1)CCC1C=NOC21` (centres undefined), the EC50 was above 245 µM and the IC50 was determined as 107 µM.

As to `CCOc1ccccc1NC(=O)C1=C(C)NC(C)=C(C(=O)Nc2ccccc2OCC)C1c1cccc([N+](=O)[O-])c1`, the EC50 is above 12.9 µM and the IC50 was above 12.9 µM.

As for `CCOC(=O)c1[nH]c(Br)c(-c2ccc(Br)cc2)c1Br`, the EC50 is above 2 µM and the IC50 worked out at 0.912 µM.

For the compound `COc1ccc(N/N=C2\CCOc3ccc(C)cc3C2=O)cc1`, the EC50 was above 20 µM and the half-inhibitory concentration (IC50) came out at 12 µM.

On to `O=C(NC1CCCCC1)c1n[nH]nc1Cl`, for which the EC50 is above 200 µM and the IC50 is above 200 µM.

Regarding `Nc1ccc(S(=O)(=O)c2ccc(NCNC(CSSCC(NCNc3ccc(S(=O)(=O)c4ccc(N)cc4)cc3)C(=O)O)C(=O)O)cc2)cc1` (centres undefined), the EC50 is above 200 µM and the half-maximal inhibitory concentration (IC50) is 112 µM.

As to `CC(=O)[O-].CC(=O)[O-].O=C(N/N=C/c1cc(Cl)cc(Cl)c1O)c1ccncc1.[Ni+2]`, the result was inactive.

As for `COc1cccc(/C=C/C(=O)c2ccccc2)c1O`, the EC50 was 14.5 µM and the IC50 came out at 112 µM.

As to `CC(=O)c1c(O)cc(O)c(-c2c(C)cc(O)c3c2C(=O)c2cccc(O)c2C3=O)c1O`, the EC50 was above 200 µM and the IC50 stood at 25.7 µM.

On to `N#CC(C(=O)CCC(=O)Nc1cccc(Cl)c1)c1ccccc1` (centres undefined), for which the EC50 is above 759 µM and the IC50 was above 759 µM.

`Clc1ccccc1/C=C1\c2ccccc2-c2nc3ccccc3nc21`: the EC50 was above 200 µM and the IC50 was above 200 µM.

For `c1ccc2c(c1)nc1n2CSC1`, the outcome was inactive.

Take `CCCCC(C(=O)CCC(=O)Nc1ccc(Cl)c(Cl)c1)C(=O)C(C)C` (centres undefined): the EC50 was above 324 µM and the 50% inhibitory concentration (IC50) stood at 275 µM.

With `C=CCOCn1cc(F)c(=O)[nH]c1=O`, the EC50 was above 200 µM and the IC50 is above 200 µM.

With `O=C1c2ccccc2-c2cc3ccccc3c(=O)n21`, the result was inactive.

Take `C/C(=N/NC(=S)Nc1ccccc1C)c1ccccn1`: the EC50 is above 0.2 µM and the IC50 came out at 0.0692 µM.

For the compound `Nc1c(-c2nc3ccccc3[nH]2)sc(=S)n1-c1ccccc1`, the EC50 was above 11.5 µM and the IC50 was above 11.5 µM.

On to `O=C1CC[C@H]2CO[C@H](c3ccccc3)N12`, for which the EC50 was above 200 µM and the half-inhibitory concentration (IC50) was above 200 µM.

As for `CC(CN(C)C)OC(=O)c1cc2ccccc2[nH]1` (centres undefined), the EC50 was above 200 µM and the half-inhibitory concentration (IC50) was above 200 µM.

Consider `C=CCC1(O)C(=O)OC2C(O)COC21O` (centres undefined), for which the EC50 is above 200 µM and the concentration for half-maximal inhibition (IC50) is above 200 µM.

For the compound `CC(NCCNC(C)c1cccnc1)c1cccnc1` (centres undefined), the EC50 was above 200 µM and the IC50 is above 200 µM.

For `Cn1c(N)c(Cc2ccc(Cl)cc2)c(=O)[nH]c1=O`, the EC50 is above 200 µM and the IC50 was above 200 µM.

As for `CCCCCCN(CCCCCC)C(=O)C1=C(C)NC(C)=C(C(=O)N(CCCCCC)CCCCCC)C1`, the EC50 was above 200 µM and the half-maximal inhibitory concentration (IC50) was found to be 95.5 µM.

Consider `CC(C)CC(NC(=O)OC(C)(C)C)C(=O)Nc1ccc(Nc2nc(F)nc(-c3c4ccccc4cn3C)n2)cc1` (centres undefined), for which the EC50 was above 18.2 µM and the concentration for half-maximal inhibition (IC50) was found to be 16.6 µM.

As for `CN1CCN(C(=S)N(C)C(=O)c2ccc(Cl)cc2)CC1`, the EC50 is above 794 µM and the half-inhibitory concentration (IC50) was 389 µM.

For the compound `CCOC(=O)CC1NC(=O)CS1` (centres undefined), the EC50 is above 138 µM and the 50% inhibitory concentration (IC50) is above 138 µM.

Regarding `CCN1C[C@]2(C)CC[C@H](OC)C34C5C[C@@H]6[C@@H](OC)C[C@@](OC)(C5[C@H]6OCc5ccccc5)C(C13)[C@H](OC(C)=O)[C@@H]42` (some centres undefined), the EC50 is above 200 µM and the IC50 stood at 105 µM.

With `O=c1c2ccccc2c2nc3ccccc3nc2n1C1CCCCC1`, the result was inactive.

In the case of `O=C1NC(N2CCOCC2)=N/C1=C\c1ccco1`, the EC50 is above 200 µM and the IC50 was above 200 µM.

As to `N=c1c2ccccc2c2ccccc2n1O`, the EC50 is above 200 µM and the 50% inhibitory concentration (IC50) is above 100 µM.

`CC1=NN(C(=O)CC(=O)N(C(=O)c2ccccc2)c2ccc(Cl)cc2)C(=O)C1N=Nc1ccc([N+](=O)[O-])cc1` (centres undefined): the EC50 is 174 µM and the 50% inhibitory concentration (IC50) is above 200 µM.

Take `COc1ccccc1/C=C(\C#N)C(=O)O`: the EC50 is above 646 µM and the 50% inhibitory concentration (IC50) was determined as 251 µM.

Take `CCn1c(SCC(=O)NNC(=S)Nc2ccc([N+](=O)[O-])cc2)nc2ccccc2c1=O`: the EC50 was above 200 µM and the IC50 stood at 83.2 µM.
